In US20260263429A1, “INHIBITORS OF CA 2+/CALMODULIN-DEPENDENT PROTEIN KINASE II (CAMKII) THAT DO NOT INHIBIT LONG-TERM POTENTIATION (LTP) INDUCTION AND THERAPEUTIC USES THEREOF” (The Regents of the University of Colorado, A Body Corporate, priority 2023, published 2026):
Where two headings read alike, the source gives them in different places. Values belong to the compound of their own block, whether it stands above or below them.

Columns and labels:
[1] = tested on: CaMKIIα binding to GST-GluN2B-c; details: 4 mM ADP or AS105
Method: (§1) In a series of exemplary methods, an in vitro kinase assay was used where purified CaMKIIα is incubated at 30° C. with GST-GluA1 alongside ATP. CaMKIIα normally phosphorylates S831 on the GluA1 subunit and this phosphorylation can be measured as a readout of CaMKIIα enzymatic activity (see e.g., FIG. 8B). […] In another exemplary method, binding of purified CaMKIIα to immobilized GST-GluN2B-c was induced by Ca^2+/CaM in the presence of a vehicle (none), 4 mM ADP or with […] AS105. […] At the same time, two exemplary methods were performed to observe ionomycin or chemical LTP (cLTP) induced co-localization of CaMKII and GluN2B either in HEK293 cells co-expressing GFP-CaMKII and mCherry-2BC or dissociated rat hippocampal cultures expressing GFP-CaMKII and mCh-PSD95 intrabody. HEK293 cells, incubating with vehicle or 10 μM AS105, were subjected to ionomycin. Hippocampal cultures, also incubating with either vehicle or 10 μM AS105, were treated with a chemical LTP (cLTP) stimulus (e.g., 100 μM glutamate, 10 μM glycine for 45 seconds). Confocal microscopy images were taken before and after each stimulus.
(§2) One possible mechanism by which AS283 could enhance GluN2B binding more than ATP is by suppressing CaMKII-mediated phosphorylation of GluN2B at S1303, as this phosphorylation within the CaMKII binding site on GluN2B reduces CaMKII binding.
Bound CaMKII was measured via immunoblot.

purified CaMKIIα [2] = molecular target: T1, purified CaMKIIα (Homo sapiens, UniProt Q9UQM7); details: read-out: previously published Km values of CaMKII for ATP; cited from earlier work
purified CaMKIIα [3] = molecular target: T1, purified CaMKIIα; assay: In vitro kinase reactions with purified CaMKIIα (GluA1 S831, T286, GluN2B S1303 phosphorylation); format: biochemical; set-up: made in house; host or cells: baculovirus/Sf9 (CaMKIIα); BL21 bacteria (CaM); details: GST-GluA1 S831 phosphorylation, 30° C., half-maximal response, four experiments; read-out: Km value of ATP (to activate CaMKII)
Method: as §1
Therefore, in another exemplary method, the ability of AS283 to selective inhibit CAMKII enzymatic activity without interfering with its binding to GluN2B was tested. In a first method, in vitro kinase reactions were performed at 30° C. in 1 mM ATP measuring purified CaMKIIα phosphorylation of GST-GluA1 S831 with varying concentrations of AS283 (0.41-10 μM).
as §2
In vitro phosphorylation assays. CaMKII-mediated phosphorylation of GluA1 S831 was measured by in vitro kinase reaction with purified GST-GluA1 c-terminal tail. Reactions contained 40 nM CaMKII (or water for negative controls), 1 μM GST-GluA1, 50 mM PIPES pH 7.1, 2 mM CaCl2), 10 mM MgCl2, 1 μM calmodulin, 1-4 mM ATP, and 1 PM of okadaic acid. Reactions were done at 30° C. for 20 s; reactions were stopped by adding SDS-loading buffer and incubation in a boiling water bath for 5 min. GST, phospho-S831, CaMKII, phospho-T286, or phospho-S1303 were detected in the samples by immunoblot analysis.
Km and Ki determination. The inhibition constant Ki was calculated using the Cheng-Prusoff equation for competitive inhibition: Ki=IC50/(1+[ATP]/Km).

[4] = tested on: CaMKII movement to excitatory synapses; assay: cLTP-induced CaMKII movement to excitatory synapses in the presence of soluble oligomeric Aβ; format: cell-based; details: 0.5 μM Aβ, 45 minutes prior to cLTP

Compound: Nc1ncnc2c1ncn2[C@@H]1O[C@H](COP(=O)(O)OP(=O)(O)O)[C@@H](O)[C@H]1O [ADP]
Ca2+/CaM-induced binding of CaMKIIα to immobilized GST-GluN2B-c versus vehicle (none) [1]: induced binding

Km (purified CaMKIIα [3]): 33.3 µM
Compound: Nc1ncnc2c1ncn2[C@@H]1O[C@H](COP(=O)(O)OP(=O)(O)OP(=O)(O)O)[C@@H](O)[C@H]1O [ATP]
Km (purified CaMKIIα [2]): 8 to 127 µM

Compound: C[C@@H](c1ccc(-c2ccccc2)c(F)c1)c1cc(/N=C(\N)N2CCOCC2)on1 [rimacalib]
rescue of Aβ-blocked cLTP-induced movement of CaMKII to the synapses ([4]; inhibitor 10 μM): rescued

Compound: Aβ: Amyloid beta (1-42) peptide purchased from Anaspec, soluble oligomeric preparation
effect of Aβ on cLTP-induced movement of CaMKII to the synapses [4]: blocks cLTP induced movement of CaMKII to the synapses
